This is an account of results in US12680083B2, “Media for culturing naive human pluripotent stem cells” (Yeda Research and Development Co. Ltd., priority 2014, dated 2026).

Assay [1] concerns WIBR3 hESCs with ESRRB mCherry knock-in reporter. The assay is described as follows: FACS analysis of ESRRB-mCherry knock-in reporter. The format is cell-based, human. The source says:
FIGS. 26A-C depict the targeting human ESRRB (a gene/transcription factor) locus with knockin mCherry fluorescent reporter. FIG. 26A-Targeting scheme is illustrated. Scissors indicate CRISPR-sgRNA cut site. In order to create mCherry reporter co-expressed with endogenous human ESRRB locus, the present inventors have chosen to knock in p2a-mCherry coding sequence in frame with the last exon of the human ESRRB gene. The present inventors have inserted oligos specific for the stop codon region of ESRRB gene into px335 plasmid which encodes CAS9 nickase and sgRNA. The present inventors have targeted WIBR3 human ESC OCT4 GFP knockin cell line. The efficiency of the targeting was about 30% (15 out of 48 clones) as verified by external PCR. Correct targeting was also verified by Southern Blot (SB) with external and anti-mCherry probes (FIG. 26B). After Neo cassette excision with Flippase, the whole targeted locus from one of the clones was amplified and sequenced. Clones 2-6 were correctly targeted (FIG. 26C).
FIGS. 26D-H are FACS analyses depicting expression of ESRRB-mCherry reporter in PSCs.
In general terms: In flow cytometry, cells or beads pass a laser one at a time.

The next assay concerns the target T1, PKCζ (Homo sapiens, UniProt Q05513).
T1 sequence (Q05513 1-592): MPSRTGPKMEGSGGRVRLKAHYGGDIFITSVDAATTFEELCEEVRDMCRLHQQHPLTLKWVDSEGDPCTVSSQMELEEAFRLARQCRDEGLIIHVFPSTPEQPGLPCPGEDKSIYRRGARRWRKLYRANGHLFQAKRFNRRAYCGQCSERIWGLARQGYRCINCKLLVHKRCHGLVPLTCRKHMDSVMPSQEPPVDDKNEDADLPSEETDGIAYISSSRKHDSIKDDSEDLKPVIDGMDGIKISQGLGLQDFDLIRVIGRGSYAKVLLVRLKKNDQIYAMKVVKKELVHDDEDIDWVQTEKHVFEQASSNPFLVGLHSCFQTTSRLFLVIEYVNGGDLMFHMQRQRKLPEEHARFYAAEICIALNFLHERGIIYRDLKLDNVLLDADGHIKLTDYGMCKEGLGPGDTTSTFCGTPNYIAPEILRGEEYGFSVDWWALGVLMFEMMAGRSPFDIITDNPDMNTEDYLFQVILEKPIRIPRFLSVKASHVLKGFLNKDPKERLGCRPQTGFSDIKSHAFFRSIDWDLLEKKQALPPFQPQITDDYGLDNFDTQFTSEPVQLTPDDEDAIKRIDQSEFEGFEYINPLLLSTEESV
As to conditions: cited from earlier work.

Another assay addresses PKCγ (Homo sapiens, UniProt P05129). As to conditions: cited from earlier work.
The next assay concerns the target PKCβ (Homo sapiens, UniProt P05771). As to conditions: cited from earlier work.
A further assay has as its target T2, PKCμ (Homo sapiens, UniProt Q15139).
T2 sequence (Q15139 1-912): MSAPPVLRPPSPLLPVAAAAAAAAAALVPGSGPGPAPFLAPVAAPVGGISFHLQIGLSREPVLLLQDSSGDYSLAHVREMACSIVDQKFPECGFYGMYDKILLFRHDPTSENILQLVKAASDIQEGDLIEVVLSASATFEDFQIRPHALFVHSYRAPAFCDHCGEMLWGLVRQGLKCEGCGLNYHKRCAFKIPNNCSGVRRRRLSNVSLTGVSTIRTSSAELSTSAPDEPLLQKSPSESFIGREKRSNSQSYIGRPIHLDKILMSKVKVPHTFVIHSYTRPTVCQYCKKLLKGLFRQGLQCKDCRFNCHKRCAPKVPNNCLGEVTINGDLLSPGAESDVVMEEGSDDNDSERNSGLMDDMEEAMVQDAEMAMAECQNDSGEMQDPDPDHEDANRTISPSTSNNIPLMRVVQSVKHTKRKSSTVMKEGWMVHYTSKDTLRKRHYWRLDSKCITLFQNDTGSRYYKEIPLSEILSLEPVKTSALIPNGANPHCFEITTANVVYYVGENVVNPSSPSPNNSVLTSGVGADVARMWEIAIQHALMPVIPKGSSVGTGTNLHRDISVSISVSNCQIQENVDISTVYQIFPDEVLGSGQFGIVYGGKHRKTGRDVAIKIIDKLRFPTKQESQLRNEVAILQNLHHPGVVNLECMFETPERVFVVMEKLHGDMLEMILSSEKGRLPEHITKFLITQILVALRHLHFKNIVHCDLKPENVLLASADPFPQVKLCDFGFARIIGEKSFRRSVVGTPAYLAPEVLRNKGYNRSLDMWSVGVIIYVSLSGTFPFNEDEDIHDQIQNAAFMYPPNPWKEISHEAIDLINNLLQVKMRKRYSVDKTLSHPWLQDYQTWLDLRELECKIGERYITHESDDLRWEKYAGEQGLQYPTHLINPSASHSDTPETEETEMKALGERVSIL
To be noted: cited from earlier work.

The target of the next assay is PKCδ (Homo sapiens, UniProt Q05655). As to conditions: cited from earlier work.
Another assay has as its target PKCα (Homo sapiens, UniProt P17252). To be noted: cited from earlier work.

Chain of PKCβ (P05771 whole entry, species assumed): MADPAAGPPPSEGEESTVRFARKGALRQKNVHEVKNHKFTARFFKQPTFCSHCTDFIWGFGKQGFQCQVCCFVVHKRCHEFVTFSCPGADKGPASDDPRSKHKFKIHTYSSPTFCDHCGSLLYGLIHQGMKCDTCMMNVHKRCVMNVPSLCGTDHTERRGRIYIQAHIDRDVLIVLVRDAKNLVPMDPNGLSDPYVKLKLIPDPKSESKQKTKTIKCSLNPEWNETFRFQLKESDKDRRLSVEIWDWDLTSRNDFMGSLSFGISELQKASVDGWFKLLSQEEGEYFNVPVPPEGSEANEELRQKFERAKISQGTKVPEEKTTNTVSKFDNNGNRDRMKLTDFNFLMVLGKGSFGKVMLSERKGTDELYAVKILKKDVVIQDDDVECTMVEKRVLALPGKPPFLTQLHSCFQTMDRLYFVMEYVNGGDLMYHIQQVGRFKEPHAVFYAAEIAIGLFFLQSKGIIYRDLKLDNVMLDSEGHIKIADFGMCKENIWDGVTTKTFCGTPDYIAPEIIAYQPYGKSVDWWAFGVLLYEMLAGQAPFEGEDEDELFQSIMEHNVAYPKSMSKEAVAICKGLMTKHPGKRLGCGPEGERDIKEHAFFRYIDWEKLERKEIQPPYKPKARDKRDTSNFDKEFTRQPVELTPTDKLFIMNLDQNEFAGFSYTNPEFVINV
Chain of PKCδ (Q05655 whole entry): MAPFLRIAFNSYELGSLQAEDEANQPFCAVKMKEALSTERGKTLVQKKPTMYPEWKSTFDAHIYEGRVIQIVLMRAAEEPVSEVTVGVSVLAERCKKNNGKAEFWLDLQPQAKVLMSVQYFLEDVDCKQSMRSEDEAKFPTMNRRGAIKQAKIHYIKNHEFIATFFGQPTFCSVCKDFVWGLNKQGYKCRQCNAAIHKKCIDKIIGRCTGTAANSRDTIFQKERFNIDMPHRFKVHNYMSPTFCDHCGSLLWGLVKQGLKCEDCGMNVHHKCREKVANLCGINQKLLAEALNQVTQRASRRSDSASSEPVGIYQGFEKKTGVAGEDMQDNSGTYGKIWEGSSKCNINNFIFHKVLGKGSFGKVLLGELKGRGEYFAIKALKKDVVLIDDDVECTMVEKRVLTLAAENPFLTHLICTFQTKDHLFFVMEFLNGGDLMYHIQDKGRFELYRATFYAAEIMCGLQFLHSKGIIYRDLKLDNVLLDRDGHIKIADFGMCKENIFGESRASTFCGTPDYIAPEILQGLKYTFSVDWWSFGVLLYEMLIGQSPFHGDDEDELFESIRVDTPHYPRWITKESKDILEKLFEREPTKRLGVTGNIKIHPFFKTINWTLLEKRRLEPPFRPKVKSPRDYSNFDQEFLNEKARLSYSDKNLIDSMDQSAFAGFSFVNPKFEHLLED

For `COc1cc2nc(N3CCCN(C)CC3)nc(NC3CCN(Cc4ccccc4)CC3)c2cc1OC` [BIX01294], the “ESRRB mCherry expression” value in assay [1] (conditions 136 with BIX01294 removed from the culture medium) was “this effect is lost”.
As for `COc1ccc2c(c1)c(C1=C(c3c[nH]c4ccccc34)C(=O)NC1=O)cn2CCCN(C)C` [Go6983], the concentration for half-maximal inhibition (IC50) (usually the concentration at which inhibition is half-maximal) is 60 nM at PKCζ; 6 nM at PKCγ; 7 nM at PKCβ; 20000 nM at PKCμ; 10 nM on PKCδ; 7 nM at PKCα.

B1: Activin A: also known as Inhibin beta A, INHBA; activator of TGF/ACTIVIN pathway (protein, listed as Homo sapiens)
chain: MPLLWLRGFLLASCWIIVRSSPTPGSEGHSAAPDCPSCALAALPKDVPNSQPEMVEAVKKHILNMLHLKKRPDVTQPVPKAALLNAIRKLHVGKVGENGYVEIEDDIGRRAEMNELMEQTSEIITFAESGTARKTLHFEISKEGSDLSVVERAEVWLFLKVPKANRTRTKVTIRLFQQQKHPQGSLDTGEEAEEVGLKGERSELLLSEKVVDARKSTWHVFPVSSSIQRLLDQGKSSLDVRIACEQCQESGASLVLLGKKKKKEEEGEGKKKGGGEGGAGADEEKEQSHRPFLMLQARQSEDHPHRRRRRGLECDGKVNICCKKQFFVSFKDIGWNDWIIAPSGYHANYCEGECPSHIAGTSGSSLSFHSTVINHYRMRGHSPFANLKSCCVPTKLRPMSMLYYDDGQNIIKKDIQNMIVEECGCS
For B1, in assay [1] (conditions 136 with Activin A added), the “ESRRB mCherry expression” value was “this effect is lost”.
